Source: ChEMBL document CHEMBL4765432, “Design and synthesis of novel Flavone-based histone deacetylase inhibitors antagonizing activation of STAT3 in breast cancer” (Eur J Med Chem, 2020)
Calls of active or inactive are those of the source. No cut-off for these calls is given here.

What was measured:
[1] = target: Signal transducer and activator of transcription 3 (Homo sapiens) (UniProt P40763); experiment: Inhibition of STAT3 in human MDA-MB-231 cells assessed as reduction in STAT-3 phosphorylation incubated for 8 hrs by Western blot analysis; type: cell-based; conditions: dose 2.5-20 µM
Signal transducer and activator of transcription 3 (Homo sapiens), sequence (P40763 whole entry): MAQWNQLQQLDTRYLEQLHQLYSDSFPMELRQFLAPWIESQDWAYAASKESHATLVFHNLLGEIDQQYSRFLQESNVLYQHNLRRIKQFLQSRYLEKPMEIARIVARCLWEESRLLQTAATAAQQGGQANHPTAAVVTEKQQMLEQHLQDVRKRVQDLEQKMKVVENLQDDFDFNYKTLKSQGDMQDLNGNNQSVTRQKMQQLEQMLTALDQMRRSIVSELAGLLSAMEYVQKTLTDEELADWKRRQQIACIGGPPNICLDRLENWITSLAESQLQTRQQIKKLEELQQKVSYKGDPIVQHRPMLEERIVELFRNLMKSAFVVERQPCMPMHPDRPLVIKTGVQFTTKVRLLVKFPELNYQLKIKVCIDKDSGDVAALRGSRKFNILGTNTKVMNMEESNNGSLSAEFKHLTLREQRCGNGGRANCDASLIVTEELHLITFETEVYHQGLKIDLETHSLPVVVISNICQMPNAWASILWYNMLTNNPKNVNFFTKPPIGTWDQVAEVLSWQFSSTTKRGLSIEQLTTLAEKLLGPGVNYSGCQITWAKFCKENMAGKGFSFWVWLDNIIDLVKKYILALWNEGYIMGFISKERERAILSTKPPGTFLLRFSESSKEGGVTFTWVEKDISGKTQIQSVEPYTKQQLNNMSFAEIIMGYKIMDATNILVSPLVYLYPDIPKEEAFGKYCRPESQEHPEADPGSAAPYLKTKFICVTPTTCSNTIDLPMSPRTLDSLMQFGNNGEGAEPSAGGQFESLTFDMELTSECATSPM

Histone deacetylase 1 = Histone deacetylase 1 (Homo sapiens, UniProt Q13547); experiment: (§1) Inhibition of recombinant human C-terminal GST-tagged full length HDAC-1 expressed in baculovirus infected in Sf9 cells using Boc-Lys (q-Ac)-AMC as substrate incubated for 10 mins followed by substrate addition and measured after 30 mins by fluorescence based assay
Histone deacetylase 1, sequence (Q13547 whole entry): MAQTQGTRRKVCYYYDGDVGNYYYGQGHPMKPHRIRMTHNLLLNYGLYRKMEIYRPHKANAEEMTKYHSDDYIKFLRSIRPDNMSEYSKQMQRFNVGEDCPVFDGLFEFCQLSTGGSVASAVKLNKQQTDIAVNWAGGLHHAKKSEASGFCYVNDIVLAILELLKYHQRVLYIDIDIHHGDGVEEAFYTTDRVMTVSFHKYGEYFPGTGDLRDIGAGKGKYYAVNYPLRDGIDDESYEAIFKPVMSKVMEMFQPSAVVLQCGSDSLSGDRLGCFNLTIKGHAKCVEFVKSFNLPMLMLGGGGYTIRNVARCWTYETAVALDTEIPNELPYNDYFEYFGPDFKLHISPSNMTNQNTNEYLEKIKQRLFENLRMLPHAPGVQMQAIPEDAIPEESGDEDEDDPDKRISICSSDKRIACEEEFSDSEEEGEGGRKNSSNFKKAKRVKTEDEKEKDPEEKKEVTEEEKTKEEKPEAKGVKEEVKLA

Histone deacetylase 5 = Histone deacetylase 5 (Homo sapiens, UniProt Q9UQL6); experiment: as §1, with “N-terminal” for “C-terminal”, “HDAC-5 (617 to end residues)” for “full length HDAC-1”, “cells at 10 uM” for “cells”, “assay relative to control” for “assay”; conditions: time 40.0 min
Histone deacetylase 5, sequence (Q9UQL6 whole entry): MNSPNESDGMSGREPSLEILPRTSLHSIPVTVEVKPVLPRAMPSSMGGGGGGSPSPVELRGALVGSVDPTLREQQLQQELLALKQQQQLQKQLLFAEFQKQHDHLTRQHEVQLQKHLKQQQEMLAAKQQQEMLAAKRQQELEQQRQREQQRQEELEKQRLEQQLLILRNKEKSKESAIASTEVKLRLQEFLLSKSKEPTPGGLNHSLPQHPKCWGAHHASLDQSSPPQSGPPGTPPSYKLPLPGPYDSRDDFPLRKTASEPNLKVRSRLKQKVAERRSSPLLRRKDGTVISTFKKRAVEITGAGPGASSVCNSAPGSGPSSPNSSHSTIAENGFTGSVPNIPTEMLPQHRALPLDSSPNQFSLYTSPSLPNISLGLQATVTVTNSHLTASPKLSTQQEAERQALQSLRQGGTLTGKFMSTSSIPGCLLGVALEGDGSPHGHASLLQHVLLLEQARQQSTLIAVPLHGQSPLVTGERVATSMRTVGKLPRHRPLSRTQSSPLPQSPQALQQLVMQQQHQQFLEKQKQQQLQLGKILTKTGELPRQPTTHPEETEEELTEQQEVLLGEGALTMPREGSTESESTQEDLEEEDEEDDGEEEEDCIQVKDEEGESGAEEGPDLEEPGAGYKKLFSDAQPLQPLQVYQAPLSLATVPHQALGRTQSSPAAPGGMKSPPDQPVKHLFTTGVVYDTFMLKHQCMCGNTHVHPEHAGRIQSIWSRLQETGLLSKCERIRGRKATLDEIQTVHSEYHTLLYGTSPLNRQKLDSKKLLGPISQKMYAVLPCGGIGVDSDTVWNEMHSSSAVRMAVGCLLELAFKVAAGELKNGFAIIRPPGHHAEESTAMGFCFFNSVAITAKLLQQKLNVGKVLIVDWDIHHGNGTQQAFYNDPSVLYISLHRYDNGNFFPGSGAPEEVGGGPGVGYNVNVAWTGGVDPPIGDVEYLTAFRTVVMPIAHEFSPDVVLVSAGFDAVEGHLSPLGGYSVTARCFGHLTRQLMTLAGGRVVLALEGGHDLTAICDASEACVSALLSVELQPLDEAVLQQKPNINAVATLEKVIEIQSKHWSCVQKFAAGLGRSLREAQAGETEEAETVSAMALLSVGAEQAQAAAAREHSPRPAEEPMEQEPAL

Histone deacetylase 9 = Histone deacetylase 9 (Homo sapiens, UniProt Q9UKV0); experiment: as §1, with “N-terminal” for “C-terminal”, “HDAC-9 (548 to end residues)” for “full length HDAC-1”, “cells at 10 uM” for “cells”, “assay relative to control” for “assay”; conditions: time 40.0 min
Histone deacetylase 9, sequence (Q9UKV0 whole entry): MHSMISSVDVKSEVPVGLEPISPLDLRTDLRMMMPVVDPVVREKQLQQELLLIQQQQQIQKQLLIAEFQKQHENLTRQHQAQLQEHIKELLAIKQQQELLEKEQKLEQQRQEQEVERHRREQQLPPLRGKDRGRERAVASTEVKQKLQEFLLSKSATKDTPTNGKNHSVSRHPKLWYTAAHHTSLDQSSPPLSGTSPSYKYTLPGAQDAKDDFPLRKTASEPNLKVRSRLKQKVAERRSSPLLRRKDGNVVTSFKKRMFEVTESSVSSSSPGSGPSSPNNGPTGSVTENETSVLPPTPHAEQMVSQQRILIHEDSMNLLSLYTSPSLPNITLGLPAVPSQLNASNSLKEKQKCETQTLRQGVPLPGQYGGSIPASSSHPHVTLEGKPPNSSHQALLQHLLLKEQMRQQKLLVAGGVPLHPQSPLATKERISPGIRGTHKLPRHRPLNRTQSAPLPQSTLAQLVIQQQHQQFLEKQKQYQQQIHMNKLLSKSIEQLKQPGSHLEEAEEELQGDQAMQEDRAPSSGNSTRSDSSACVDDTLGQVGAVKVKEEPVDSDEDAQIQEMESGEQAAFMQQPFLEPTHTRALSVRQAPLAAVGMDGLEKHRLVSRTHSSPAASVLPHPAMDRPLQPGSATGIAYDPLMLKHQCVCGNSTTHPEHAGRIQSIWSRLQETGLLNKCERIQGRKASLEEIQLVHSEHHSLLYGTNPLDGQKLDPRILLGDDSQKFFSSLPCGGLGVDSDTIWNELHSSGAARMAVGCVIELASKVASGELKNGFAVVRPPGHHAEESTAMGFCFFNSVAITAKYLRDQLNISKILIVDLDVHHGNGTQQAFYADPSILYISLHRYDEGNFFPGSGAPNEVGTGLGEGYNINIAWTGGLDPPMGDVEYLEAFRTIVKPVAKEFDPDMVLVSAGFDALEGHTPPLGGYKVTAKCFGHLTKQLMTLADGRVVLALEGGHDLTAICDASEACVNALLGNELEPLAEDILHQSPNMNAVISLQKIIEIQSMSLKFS

4T1 [2] = experiment: Cytotoxicity against mouse 4T1 cells assessed as reduction in cell viability incubated for 48 hrs by MTT assay; type: functional, cell-based; conditions: 4T1, 48 h
MCF7 = experiment: Cytotoxicity against human MCF7 cells assessed as reduction in cell viability incubated for 48 hrs by MTT assay; type: functional, cell-based; conditions: MCF7, 48 h
Bcap37 = experiment: Cytotoxicity against human Bcap37 cells assessed as reduction in cell viability incubated for 48 hrs by MTT assay; type: functional, cell-based; conditions: Bcap37, 48 h
A-375 = experiment: Cytotoxicity against human A-375 cells assessed as reduction in cell viability incubated for 48 hrs by MTT assay; type: functional, cell-based; conditions: A-375, 48 h
PLC = experiment: Cytotoxicity against human PLC cells assessed as reduction in cell viability incubated for 48 hrs by MTT assay; type: functional, cell-based
SMMC-7721 = experiment: Cytotoxicity against human SMMC-7721 cells assessed as reduction in cell viability incubated for 48 hrs by MTT assay; type: functional, cell-based; conditions: SMMC-7721, 48 h
4T1 [3] = experiment: Potency index, ratio of IC50 of SAHA to IC50 of compound for cytotoxicity against mouse 4T1 cells assessed as reduction in cell viability incubated for 48 hrs by MTT assay; type: functional
MDA-MB-231 [4] = experiment: Potency index, ratio of IC50 of SAHA to IC50 of compound for cytotoxicity against human MDA-MB-231 cells assessed as reduction in cell viability incubated for 48 hrs by MTT assay; type: functional
MDA-MB-231 [5] = experiment: Induction of cell cycle arrest in human MDA-MB-231 cells assessed as G0/G1 phase accumulation at 1 uM incubated for 24 hrs by PI staining based flow cytometry analysis (reference value: 29.10 %); type: functional
MDA-MB-231 [6] = experiment: Induction of cell cycle arrest in human MDA-MB-231 cells assessed as S phase accumulation at 2 uM incubated for 24 hrs by PI staining based flow cytometry analysis (reference value: 43.82 %); type: functional
4T1 [7] = experiment: Induction of cell cycle arrest in mouse 4T1 cells assessed as S phase accumulation at 2 uM incubated for 24 hrs by PI staining based flow cytometry analysis (reference value: 19.43 %); type: functional
4T1 [8] = experiment: Induction of cell cycle arrest in mouse 4T1 cells assessed as increase in G0/G1 phase accumulation incubated for 24 hrs by flow cytometry analysis; type: functional, cell-based; conditions: dose 1-2 µM
MDA-MB-231 [9] = experiment: Induction of apoptosis in human MDA-MB-231 cells assessed as late apoptotic cells at 1 uM incubated for 72 hrs by annexinV-FITC and PI staining based flow cytometry analysis (reference value: 3.79 %); type: functional
MDA-MB-231 [10] = experiment: Induction of apoptosis in human MDA-MB-231 cells assessed as necrotic cells at 1 uM incubated for 72 hrs by annexinV-FITC and PI staining based flow cytometry analysis (reference value: 0.330 %); type: functional
MDA-MB-231 [11] = experiment: Induction of apoptosis in human MDA-MB-231 cells assessed as early apoptotic cells at 2.5 uM incubated for 72 hrs by annexinV-FITC and PI staining based flow cytometry analysis (reference value: 5.57 %); type: functional
MDA-MB-231 [12] = experiment: Induction of apoptosis in human MDA-MB-231 cells assessed as late apoptotic cells at 2.5 uM incubated for 72 hrs by annexinV-FITC and PI staining based flow cytometry analysis (reference value: 3.79 %); type: functional
MDA-MB-231 [13] = experiment: Induction of apoptosis in human MDA-MB-231 cells assessed as viable cells at 5 uM incubated for 72 hrs by annexinV-FITC and PI staining based flow cytometry analysis (reference value: 90.3 %); type: functional; conditions: read-out: Activity
4T1 [14] = experiment: Induction of apoptosis in mouse 4T1 cells assessed as necrotic cells at 1 uM incubated for 72 hrs by annexinV-FITC and PI staining based flow cytometry analysis (reference value: 5.00 %); type: functional
4T1 [15] = experiment: Induction of apoptosis in mouse 4T1 cells assessed as early apoptotic cells at 2.5 uM incubated for 72 hrs by annexinV-FITC and PI staining based flow cytometry analysis (reference value: 1.65 %); type: functional
4T1 [16] = experiment: Induction of apoptosis in mouse 4T1 cells assessed as late apoptotic cells at 2.5 uM incubated for 72 hrs by annexinV-FITC and PI staining based flow cytometry analysis (reference value: 2.24 %); type: functional
4T1 [17] = experiment: Induction of apoptosis in mouse 4T1 cells assessed as late apoptotic cells at 5 uM incubated for 72 hrs by annexinV-FITC and PI staining based flow cytometry analysis (reference value: 2.24 %); type: functional
MDA-MB-231 [18] = experiment: Induction of apoptosis in human MDA-MB-231 cells assessed as effect on p53 expression at 0.5 to 10 uM incubated for 48 hrs by Western blot analysis; type: functional, cell-based; conditions: dose 0.5-10 µM
[19] = MRT in Sprague-Dawley rat at 20 mg/kg, po measured upto 12 hrs by LC-MS/MS analysis; type: ADME, organism-based; conditions: in vivo
[20] = Oral bioavailability in Sprague-Dawley rat at 20 mg/kg measured upto 12 hrs by LC-MS/MS analysis; type: ADME, organism-based; conditions: in vivo
[21] = Tmax in Sprague-Dawley rat at 20 mg/kg, iv measured upto 12 hrs by LC-MS/MS analysis; type: ADME, organism-based; conditions: in vivo
[22] = MRT in Sprague-Dawley rat at 20 mg/kg, iv measured upto 12 hrs by LC-MS/MS analysis; type: ADME, organism-based; conditions: in vivo
[23] = Genotoxicity in Salmonella typhimurium TA97a by Ames test; type: toxicity; conditions: salmonella enterica subsp. enterica serovar typhimurium
[24] = Genotoxicity in Salmonella typhimurium TA1537 by Ames test; type: toxicity; conditions: salmonella enterica subsp. enterica serovar typhimurium
[25] = Genotoxicity in Salmonella typhimurium WP2 uvrA (pKM 101) by Ames test; type: toxicity; conditions: salmonella enterica subsp. enterica serovar typhimurium
4T1 [26] = experiment: Antitumor activity against mouse 4T1 cells xenografted in BALB/c mouse assessed as tumor growth inhibition at 20 mg/kg, ip administered for 22 days and measured on day 22; type: functional, organism-based; conditions: time 22.0 day
MDA-MB-231 [27] = experiment: Antitumor activity against human MDA-MB-231 cells xenografted in BALB/c mouse assessed as tumor growth inhibition at 25 mg/kg, ip administered for 34 days and measured on day 34; type: functional, organism-based; conditions: time 34.0 day
[28] = Toxicity in BALB/c mouse xenografted with mouse 4T1 cells assessed as effect on body weight at 50 mg/kg, po administered for 22 days and measured on day 22; type: organism-based; conditions: in vivo, 528 h, time 22 day

With `CN(C)CCOc1ccc(-c2cc(=O)c3c(O)cc(OCCCCCC(=O)NO)cc3o2)cc1.Cl` the inhibition [1] was “Dose-dependent effect”, the IC50 (Histone deacetylase 1) was 36 nM and the inhibition (Histone deacetylase 5) was 38%. It also gave an inhibition (Histone deacetylase 9) of 26%, an IC50 (4T1 [2]) of 1990 nM and an IC50 (MCF7) of 4700 nM. For the same compound, the IC50 (Bcap37) was 3280 nM, the IC50 (A-375) was 1180 nM and the IC50 (PLC) was 582 nM. The IC50 (SMMC-7721) was 530 nM, the “Ratio IC50” value (4T1 [3]) was 2 and the “Ratio IC50” value (MDA-MB-231 [4]) was 2. For the same compound, the Activity (MDA-MB-231 [5]) was 49.09%, the Activity (MDA-MB-231 [6]) was 10.21% and the Activity (4T1 [7]) was 25.58%. For the same compound, the Activity (4T1 [8]) was “Dose-dependent effect”, the Activity (MDA-MB-231 [9]) was 12% and the Activity (MDA-MB-231 [10]) was 0.13%. The Activity (MDA-MB-231 [11]) was 50.1%, the Activity (MDA-MB-231 [12]) was 24.3% and the viability at 5 µM (MDA-MB-231 [13]) was 17.2%. The Activity (4T1 [14]) was 3.6%, the Activity (4T1 [15]) was 31.4% and the Activity (4T1 [16]) was 33.9%. The Activity (4T1 [17]) was 21.9%, the Activity (MDA-MB-231 [18]) was “inactive” and the MRT [19] was 1.1 h. The bioavailability [20] was 57.8%, the Tmax [21] was 4.98 min and the MRT [22] was 1.25 h. The Activity [23] was “Non-Toxic”, the Activity [24] was “Non-Toxic” and the Activity [25] was “Non-Toxic”. The TGI (4T1 [26]) was “Active”, the TGI (MDA-MB-231 [27]) was “Active” and the Activity [28] was “Non-Toxic”.
